Measured values as given in patent publication US8168384B2, “Non-thiopurine methyltransferase related effects in 6-mercaptopurine therapy” (Guy's and St. Thomas' NHS Foundation Trust, priority 2007, dated 2012).

Key:
[1] = remaining non-/partial responder patients
[2] = Cohort of patients starting azathioprine therapy: clinical response, side-effects and association with XDH, MOCOS and AOX SNP genotype; settings: cohort of 168 patients starting azathioprine therapy

Cn1cnc([N+](=O)[O-])c1Sc1ncnc2nc[nH]c12 [azathioprine, 6-(1-methyl-4-nitro-5-imidazolylthio) purine]
difference in TGN levels between wild-type and heterozygous for the AOX SNP [1]: no significant difference
partial responders [2]: 7 patients
patients deemed to have no response to azathioprine [2]: 35 patients
